The numbers were not newly measured in US8079695B2, “Inkjet inks having improved print uniformity” (Eastman Kodak Company, priority 2008, dated 2011), which cites them from elsewhere.

The conditions of the series: measured and predicted values (handbooks or ACD/LABS v8.14); lowest pKa given for di-carboxylic acids.

In the case of `C=CC(=O)NC(C)(C)CS(=O)(=O)O` [2-acrylamido-2-methylpropane sulfonic acid], the pKa was 1.7.

In the case of `C=C(C)C(=O)OCCS(=O)(=O)O` [2-propenoic acid, 2-methyl-, 2-sulfoethyl ester], the pKa is 1.0.

Consider `C=CC(=O)O` [Acrylic acid], for which the pKa was 4.3.

`C=CCS(=O)(=O)O` [Allyl sulfonic acid]: the pKa is given as 1.5.

Take `C/C(=C\C(=O)O)C(=O)O` [Mesaconic acid]: the pKa is on record as 3.1.

Regarding `C=C(C)C(=O)O` [Methacrylic acid (MA), Methacrylic acid], the pKa is 4.7.

On to `O=C(O)/C=C/Cl` [trans-chloroacrylic acid], for which the pKa is 3.7.

On to `C=C(Cl)C(=O)O` [α-chloroacrylic acid], for which the pKa is reported as 3.3.
